Results: patent US9421356B2, “Transdermal methods and systems for the delivery of corticosteroid compounds” (priority 2007, dated 2016)
Where two headings read alike, the source gives them in different places.

Columns and labels:
[1] = Systemic delivery study: plasma pharmacokinetics after iontophoretic patch or subcutaneous injection; type: in vivo, domestic swine; settings: subcutaneous 6 mg; for Cmax / half-life / AUC(0-t): pig, sc; for half-life: read-out: t½ (converted)
Excerpt: The purpose of the study was to determine the systemic plasma exposure, absorption characteristics and elimination characteristics of the active agent Dexamethasone sodium phosphate, (DexP) when administered from either a subcutaneous injection or an iontophoretic patch in domestic swine.
The patch is an active (iontophoretic) drug delivery patch which employs a low-level electrical field produced by a novel power source incorporated into the patch to “drive” the drug into the body in a pain-free manner. This system has advantages over passive patches, including more rapid and controlled delivery and the ability to deliver a wider variety of drugs.
The study entailed administration of DexP from three concurrently applied patches delivered at 150 μA, 225 μA and 300 μA over a 9 hour period in 1 male and 1 female domestic swine. Each patch contained a 10 mg/ml Dexamethasone sodium phosphate gel (2% HPMC) in the donor cell compartment, and a 0.9% saline gel (2% HPMC) in the return cell compartment. As a comparator, a subcutaneous 6 mg dose of DexP was delivered to 1 male and 1 female domestic swine. All animals were implanted with a central venous access port (Hickman catheter) prior to administration of the drug and plasma samples were obtained pre-dosing and up to 24 hours after dosing. Samples were analyzed for the presence of dexamethasone phosphate and the data tabulated and selected pharmacokinetic parameters were calculated.

[2] = iontophoresis of 4 mg/ml solution, charge dosage 40-80 mA-minutes, cited from earlier work
[3] = in vivo, female swine (animal 8P168)
[4] = in vivo, male swine (animal 8P167)

Compound | Cmax [1, 3] [ng/mL] | half-life [1, 3] [min] | Cmax [1, 4] [ng/mL] | AUC(0-t) ([1]; in vivo, male swine (animal 8P167), read-out: AUC(0-12)) [ng·h/mL] | half-life [1, 4] [min] | AUC(0-t) ([1]; plasma, female swine, read-out: AUC(0-14)) [ng·h/mL] | AUC(0-12) ([1]; female swine (animal 8P168)) [ng·h/mL] | amount of dexamethasone delivered (highest estimate) ([2]; J Pharm Compounding 2003) [milligrams] | amount of dexamethasone delivered (lowest estimate) ([2]; Petelenz 1992) [micrograms]
C[C@@H]1C[C@H]2[C@@H]3CCC4=CC(=O)C=C[C@]4(C)[C@@]3(F)[C@@H](O)C[C@]2(C)[C@@]1(O)C(=O)COP(=O)(O)O [DexP, Dexamethasone sodium phosphate] | 27.3 | 90 | 28.4 | 36.4 | 51 | 60.5 | 60.5 |  | 
C[C@@H]1C[C@H]2[C@@H]3CCC4=CC(=O)C=C[C@]4(C)[C@@]3(F)[C@@H](O)C[C@]2(C)[C@@]1(O)C(=O)CO [dexamethasone] |  |  |  |  |  |  |  | 1.4 | 10
